One assay relates to Del19/T790M/C797S EGFR. Description: EGFR degradation HTRF assay in H1975-clone #28 (DTC) cells. It is filed as cell-based. The following applies: H1975 # 28 DTC (Del19/T790M/C797S), 16h treatment; for DC50: HTRF; for Dmax (%): maximum percentage of degradation. An outline of the steps: (§1)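 EGFR levels quantified by HTRF on lysates after 16 h compound exposure (top 10 uM, 5-fold, 8 points) in single-cell H1975 clones expressing only exogenous mutant EGFR after sgRNA knockout of endogenous copies. DC50 derived by four-parameter logistic fitting of inhibition percentage.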
(In general: TR-FRET usually uses a lanthanide donor and a delayed reading to cut background.)

The target in another assay is T1, L858R/T790M/C797S EGFR (Homo sapiens, UniProt P00533, C797S/L858R/T790M).
T1 construct: expressed in transfected cells; host or cells: H1975 clone #25 (lentiviral over-expression, endogenous EGFR knocked out by sgRNA)
Briefly: EGFR degradation HTRF assay in H1975-clone #25 (LTC) cells. The assay is classed as cell-based. Particulars: 16h treatment; for DC50: HTRF; for Dmax: NCI-H1975, H1975 # 25-LTC (L858R/T790M/C797S). An outline of the steps:
as §1

Setting [1] is: H1975 # 25-LTC (L858R/T790M/C797S).
[2] abbreviates: maximum percentage of degradation.

Consider `Cc1cc2cc(n1)-c1cnn(C)c1OCC[C@@H]1C[C@H]1CN1/C(=N/C2=O)Nc2ccc(N3CCC(C(=O)N4CCN(c5cc(F)c([C@H]6CCC(=O)NC6=O)c(F)c5)CC4)CC3)cc21` [Example 367, (R)-3-(4-(4-(1-((71R,72S,E)-1^1,2^6-dimethyl-3-oxo-5^2,5^3-dihydro-1^1H,5^1H-10-oxa-4-aza-5(2,1)-benzo[d]imidazola-2(2,4)-pyridina-1(4,5)-pyrazola-7(1,2)-cyclopropanacyclodecaphane-5^6-yl)piperidine-4-carbonyl)piperazin-1-yl)-2,6-difluorophenyl)piperidine-2,6-dione], for which, in the assay with Del19/T790M/C797S EGFR, the DC50 (in general, the midpoint of the concentration-degradation curve) amounted to 0.623 nM and the “Dmax (%)” value worked out at 80.77%. This molecule displayed a DC50 on L858R/T790M/C797S EGFR (setting [1]) of 1.31 nM. Besides, the Dmax (usually the largest share of the target that was removed) at L858R/T790M/C797S EGFR (setting [2]) stood at 87.8%.

Turning to `Cc1cc2cc(n1)-c1cnn(C)c1OCCC[C@@H](C)CN1/C(=N/C2=O)Nc2ccc(C(=O)N(C)C3CCN(CC4CCN(c5cc(F)c([C@H]6CCC(=O)NC6=O)c(F)c5)CC4)CC3)cc21` [Example 287, (R,E)-N-(1-((1-(4-((R)-2,6-dioxopiperidin-3-yl)-3,5-difluorophenyl)piperidin-4-yl)methyl)piperidin-4-yl)-N,1^1,2^6,7-tetramethyl-3-oxo-5^2,5^3-dihydro-1^1H,5^1H-11-oxa-4-aza-5(2,1)-benzo[d]imidazola-2(2.4)-pyridina-1(4,5)-pyrazolacycloundecaphane-5^6-carboxamide], in the assay with Del19/T790M/C797S EGFR, the DC50 stood at 0.918 nM and the “Dmax (%)” value came to 88.53%. The molecule further showed a 50% degradation concentration (DC50) at L858R/T790M/C797S EGFR (setting [1]) of 0.581 nM. This molecule also showed a Dmax at L858R/T790M/C797S EGFR (setting [2]) of 93.5%.

Turning to `Cc1cc2cc(n1)-c1cnn(C)c1OCCC[C@@H](C)CN1/C(=N/C2=O)Nc2ccc(C(=O)N(CCN3CCN(c4cc(F)c([C@H]5CCC(=O)NC5=O)c(F)c4)CC3)C(C)C)cc21` [Example 282, (R,E)-N-(2-(4-(4-((R)-2,6-dioxopiperidin-3-yl)-3,5-difluorophenyl)piperazin-1-yl)ethyl)-N-isopropyl-1^1,2^6,7-trimethyl-3-oxo-5^2,5^3-dihydro-1^1H,5^1H-11-oxa-4-aza-5(2,1)-benzo[d]imidazola-2(2,4)-pyridina-1(4,5)-pyrazolacycloundecaphane-5^6-carboxamide], in the assay on Del19/T790M/C797S EGFR, the 50% degradation concentration (DC50) was determined as 0.657 nM and the “Dmax (%)” value was determined as 77.76%. For the same molecule, the DC50 at L858R/T790M/C797S EGFR (setting [1]) is 0.752 nM. The maximal degradation (Dmax) at L858R/T790M/C797S EGFR (setting [2]) turned out to be 82.9%.

As to `Cc1cc2cc(n1)-c1cnn(C)c1OCCC[C@@H](C)CN1/C(=N/C2=O)Nc2ccc(C(=O)N(C)C[C@H]3CCN(CCc4cc(F)c([C@H]5CCC(=O)NC5=O)c(F)c4)CC3(F)F)cc21` [Example 274, (R,E)-N—(((R)-1-(4-((R)-2,6-dioxopiperidin-3-yl)-3,5-difluorophenethyl)-3,3-difluoropiperidin-4-yl)methyl)-N,1^1,2^6,7-tetramethyl-3-oxo-5^2,5^3-dihydro-1^1H,5^1H-11-oxa-4-aza-5(2,1)-benzo[d]imidazola-2(2,4)-pyridina-1(4,5)-pyrazolacycloundecaphane-5^6-carboxamide], the DC50 amounted to 0.691 nM in the assay with Del19/T790M/C797S EGFR and 1.63 nM at L858R/T790M/C797S EGFR (setting [1]). Also, the “Dmax (%)” value in the assay with Del19/T790M/C797S EGFR amounted to 48.56%. In addition, at L858R/T790M/C797S EGFR (setting [2]), the Dmax amounted to 69.2%.

For “(R,E)-N—((S)-1-(4-((R)-2,6-dioxopiperidin-3-yl)-3,5-difluorophenethyl)azepan-4-yl)-N,1^1,2^6,7-tetramethyl-3-oxo-5^2,5^3-dihydro-1^1H,5^1H-11-oxa-4-aza-5(2,1)-benzo[d]imidazola-2(2,4)-pyridina-1(4,5)-pyrazolacycloundecaphane-5^6-carboxamide [Example 340]”, the DC50 in the assay with Del19/T790M/C797S EGFR worked out at 0.587 nM; at L858R/T790M/C797S EGFR (setting [1]) it was 0.28 nM. Besides, the “Dmax (%)” value in the assay on Del19/T790M/C797S EGFR stood at 83.73%; at L858R/T790M/C797S EGFR (H1975 # 25-LTC (L858R/T790M/C797S), maximum percentage of degradation), 91.69%.
